Source: US4036840A, “2-Substituted-s-triazolo[1,5a]pyrimidines” (ICN Pharmaceuticals, priority 1975, dated 1977)
Entries after “also recorded” stand apart in the source; their conditions may differ.

Columns and labels:
[1] = system: phosphodiesterase enzymes; settings: background; cited from earlier work
anesthetized dog = settings: background; cited from earlier work
[2] = system: 3',5'-Cyclic AMP phosphodiesterase (PDE) from lung; experiment: 3',5'-Cyclic AMP phosphodiesterase (PDE) inhibition, rabbit lung enzyme (Fraction II, low Km); assay type: biochemical; settings: relative to theophylline, cAMP about 1.7 × 10^-7 M, 30° C., 10 minutes, pH 7.5
[3] = system: 3',5'-Cyclic AMP phosphodiesterase (PDE) from kidney; experiment: 3',5'-Cyclic AMP phosphodiesterase (PDE) inhibition, rabbit kidney enzyme (Fraction II, low Km); assay type: biochemical; settings: relative to theophylline, cAMP about 1.7 × 10^-7 M, 30° C., 10 minutes, pH 7.5
[4] = system: isolated guinea pig heart preparation; experiment: Coronary dilation in isolated guinea pig heart preparation; settings: 10 μg/ml, preliminary
[5] = system: isolated guinea pig uteri; experiment: Smooth muscle relaxation of isolated guinea pig uteri; settings: 2-10 μg/ml
rats = experiment: Anti-inflammatory test (Winter et al.), foot volume in rats; assay type: in vivo, rat; settings: oral, 100 mg/kg
From the text: Following the procedure of C. A. Winter, et al as described in the Proc. Exper.

[6] = system: isolated guinea pig heart preparation; experiment: Inotropic effect in isolated guinea pig heart preparation; settings: 10 μg/ml

SMILES	phosphodiesterase inhibition [1]	positive inotropic effect (anesthetized dog)	PDE Lung; α (I50 theophylline / I50 compound) [2]	PDE Kidney; α (I50 theophylline / I50 compound) [3]	coronary dilation [4]	smooth muscle relaxation [5]	anti-inflammatory activity (rats)	inhibition of foot volume (rats) [%]	positive inotropic effect [6]
Cc1cc(C)n2ncc(Br)c2n1 [3-bromo-5,7-dimethylpyrazolo[1,5a]pyrimidine]	significantly more active than theophylline against various phosphodiesterase enzymes	positive inotropic effect							
Cc1cc(O)n2nc(SCc3ccccc3)nc2n1 [Compound 24, 2-benzylthio-7-hydroxy-5-methyl-s-triazolo[1,5a]pyrimidine]			0.75	0.75	coronary dialation	smooth muscle relaxants	significant activity	43	
Cc1cc(N(CCO)CCO)n2nc(SCc3ccccc3)nc2n1 [Compound 29, 2-benzylthio-7-[bis(β-hydroxyethyl)amino]-5-methyl-s-triazolo[1,5a]pyrimidine]			2.10	2.30	coronary dialation	smooth muscle relaxants			positive inotropic effect
Cn1c(=O)c2[nH]cnc2n(C)c1=O [Theophylline]	does not selectively inhibit phosphodiesterase; also recorded: not as potent as a phosphodiesterase inhibitor as is desired								
